Assay results as given in ChEMBL document CHEMBL1201862, “PubChem BioAssay data set” (2004).
Calls of active or inactive are those of the source.

Assays:
[1] = inhibitors of Ran–importin-beta complex, dose response, biochemical, plate reader, dry powder (AID 493048); parameters: species or system Homo sapiens
[2] = target: T1, Short transient receptor potential channel 4 (Mus musculus, UniProt Q9QUQ5); experiment: TRPC4 positive allosteric modulators, dose response, cell-based, HEK293 TRPC4/mu-opioid, Fluo-4 calcium, EC20 DAMGO (AID 434941); type: functional
T1 sequence (Q9QUQ5 whole entry): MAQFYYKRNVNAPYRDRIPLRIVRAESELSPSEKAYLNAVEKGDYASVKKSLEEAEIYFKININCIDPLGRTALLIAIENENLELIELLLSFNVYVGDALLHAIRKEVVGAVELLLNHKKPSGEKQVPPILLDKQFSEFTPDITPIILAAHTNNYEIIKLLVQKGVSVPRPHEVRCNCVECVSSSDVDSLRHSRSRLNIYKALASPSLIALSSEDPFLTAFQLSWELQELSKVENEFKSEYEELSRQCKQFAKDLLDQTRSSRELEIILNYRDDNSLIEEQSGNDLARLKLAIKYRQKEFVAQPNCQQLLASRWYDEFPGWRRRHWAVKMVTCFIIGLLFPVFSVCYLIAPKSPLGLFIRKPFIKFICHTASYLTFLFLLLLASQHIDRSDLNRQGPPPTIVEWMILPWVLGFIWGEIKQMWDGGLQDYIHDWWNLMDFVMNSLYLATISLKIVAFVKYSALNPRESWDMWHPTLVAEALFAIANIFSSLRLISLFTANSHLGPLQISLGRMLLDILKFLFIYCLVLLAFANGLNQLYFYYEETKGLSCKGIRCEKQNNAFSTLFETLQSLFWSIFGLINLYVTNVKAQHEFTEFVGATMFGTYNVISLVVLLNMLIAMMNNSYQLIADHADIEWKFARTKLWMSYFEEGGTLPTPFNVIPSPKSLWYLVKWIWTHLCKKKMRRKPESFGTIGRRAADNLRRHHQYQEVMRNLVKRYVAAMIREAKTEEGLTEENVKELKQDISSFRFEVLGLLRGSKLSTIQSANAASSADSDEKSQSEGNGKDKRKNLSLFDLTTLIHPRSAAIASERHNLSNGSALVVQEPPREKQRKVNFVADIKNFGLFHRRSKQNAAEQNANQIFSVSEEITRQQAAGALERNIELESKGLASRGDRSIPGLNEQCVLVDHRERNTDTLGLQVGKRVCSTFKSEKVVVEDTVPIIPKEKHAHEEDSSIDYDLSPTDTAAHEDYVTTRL

[3] = target: Trypsin (Sus scrofa, UniProt P00761); experiment: porcine trypsin inhibitors, dose response, selectivity assay for Rce1 protease inhibitor project, biochemical, quenched peptide fluorescence, cherry-pick (AID 488789)
[4] = system: Vero; experiment: cytotoxicity of synthesized analogs in Vero 76, SAR follow-up, cytotoxicity control for West Nile virus antiviral project, Vero 76 cells (AID 2414); type: functional; conditions: Chlorocebus sabaeus
[5] = system: Vero; experiment: cytotoxicity of synthesized analogs in Vero cells, SAR follow-up, cytotoxicity control for West Nile virus antiviral project, cell-based, set II (AID 2402); type: functional; conditions: Chlorocebus sabaeus
[6] = system: Vero; experiment: Vero E6 cell cytotoxicity, SAR follow-up, cytotoxicity control for West Nile virus antiviral project, synthesized analogs (AID 2244); type: functional; conditions: Chlorocebus sabaeus
[7] = A Cell Based Assay for the Identification of Probe candidate Compounds with Anti- Venezuelan Equine Encephalitis virus. [Related pubchem assays: 2409, 2419, 1621, 2238, 2405, 2024, 2065, 2402, 2414, 1635, 1650, 2244 ]; type: functional
[8] = system: Vero; experiment: host cell cytotoxicity of antiviral hits, dose response, cytotoxicity control for West Nile virus antiviral project, secondary assay (AID 1650); type: functional; conditions: Chlorocebus sabaeus
[9] = system: Vero; experiment: West Nile virus CPE inhibition, SAR follow-up, cell-based, synthesized analogs (AID 2238); type: functional; conditions: Chlorocebus sabaeus
[10] = system: Vero; experiment: West Nile virus antiviral activity, cell-based, CPE readout (AID 1621); type: functional; conditions: Chlorocebus sabaeus
[11] = target: G-protein coupled receptor 55 (Homo sapiens, UniProt Q9Y2T6); experiment: GPR55 agonists via beta-arrestin recruitment, primary screen, imaging, U2OS cells, beta-arrestin-GFP redistribution (AID 1961); type: functional
[12] = target: Alkaline phosphatase, placental type (Homo sapiens, UniProt P05187); experiment: PLAP enzyme inhibitors, confirmation, biochemical, luminescence (AID 1512); type: functional
[13] = target: T2, Tyrosine-protein phosphatase non-receptor type 7 (Homo sapiens, UniProt P35236); experiment: SAR analysis of chemical inhibitors of HePTP using a Fluorescent assay - Set 2. [Related pubchem assays (depositor defined):AID1059, AID1077, AID1661, AID2085, AID521]; type: functional
T2 sequence (P35236 whole entry): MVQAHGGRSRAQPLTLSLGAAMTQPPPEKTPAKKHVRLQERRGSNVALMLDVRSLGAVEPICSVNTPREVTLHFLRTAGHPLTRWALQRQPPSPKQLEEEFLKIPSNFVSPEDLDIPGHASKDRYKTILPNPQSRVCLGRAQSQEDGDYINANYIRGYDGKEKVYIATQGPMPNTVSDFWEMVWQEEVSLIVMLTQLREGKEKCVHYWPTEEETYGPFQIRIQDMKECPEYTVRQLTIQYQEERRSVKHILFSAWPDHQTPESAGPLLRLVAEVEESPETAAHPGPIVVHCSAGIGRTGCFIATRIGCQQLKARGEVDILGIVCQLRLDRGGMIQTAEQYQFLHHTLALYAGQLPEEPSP

[14] = target: Dual specificity protein phosphatase 3 (Homo sapiens, UniProt P51452); experiment: SAR VHR1 Fluorescent Assay for In Vitro dose response studies Set 2. [Related pubchem assays (depositor defined):AID1654, AID1661, AID1878]; type: functional
[15] = target: 1-acylglycerol-3-phosphate O-acyltransferase ABHD5/Perilipin-5 (Homo sapiens, UniProt Q00G26+Q8WTS1); experiment: Luminescence-based biochemical high throughput dose response assay for inhibitors of the interaction of the lipase co-activator protein, abhydrolase domain containing 5 (ABHD5) with perilipin-5 (MLDP; PLIN5) (2K validation set). [Related pubchem assays (depositor defined):AID493035, AID493241]
[16] = target: Perilipin-1/ABHD5 (Homo sapiens, UniProt O60240+Q8WTS1); experiment: Luminescence-based biochemical high throughput dose response assay for inhibitors of the interaction of the lipase co-activator protein, abhydrolase domain containing 5 (ABHD5) with perilipin-1 (PLIN1) (2K validation set). [Related pubchem assays (depositor defined):AID493027, AID493057]
[17] = system: Vero; experiment: cells; type: functional, cell-based; conditions: Chlorocebus sabaeus
[18] = system: Vero; experiment: cells; type: functional; conditions: Chlorocebus sabaeus
[19] = HeLa cell cytotoxicity, dose response, cytotoxicity control for MgcRacGAP inhibitor project (AID 624300); type: functional
[20] = target: NS3 (Hepatitis C virus, UniProt A3EZJ3); experiment: PubChem AID 2173; parameters: species or system Hepacivirus hominis
[21] = target: C-C chemokine receptor type 6 (Homo sapiens, UniProt P51684); experiment: CCR6 receptor antagonists, dose response, cell-based, luminescent beta-arrestin readout (AID 504728); type: functional
[22] = target: Beta-galactosidase (Escherichia coli, UniProt Q8VNN2); experiment: beta-galactosidase enzyme inhibitors and activators, dose response, artefact control for CCR6 antagonist project, biochemical, E. coli enzyme, set 3 (AID 504712); type: functional
[23] = target: Neutrophil collagenase (Homo sapiens, UniProt P22894); experiment: MMP13 inhibition and MMP selectivity, late-stage follow-up, selectivity assay for MMP13 inhibitor project, biochemical, probe development, late stage results, panel member MMP-8 [IC50 Assay] (AID 2067)
[24] = target: G-protein coupled receptor 35 (Homo sapiens, UniProt Q9HC97); experiment: GPR35 antagonists blocking zaprinast-driven arrestin recruitment, primary screen, imaging, U2OS, beta-arrestin-GFP, zaprinast agonist (AID 2058); type: functional;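 note: antagonist potency meaning inhibition of agonist-induced arrestin redistribution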
[25] = inhibitors of firefly luciferase expression or activity, dose response, H4 neuroglioma cells, luminescence (AID 1990); type: functional, cell-based
[26] = Luminescence Cell-Based Dose Response HTS to Identify Inhibitors of 5'UTR Stem-Loop Driven Prion Protein mRNA Translation in H4 Neuroglioblastoma Cells. [Related pubchem assays: 1827 (Project Summary), 1813 (Primary HTS)]; type: functional
[27] = inhibitors of SNCA 5'UTR-driven reporter translation, confirmation, H4 neuroglioma cells, luminescence (AID 1988); type: functional, cell-based
[28] = inhibitors of intracellular T. cruzi replication, confirmation, NIH3T3 host cells, beta-gal luminescence (AID 2044); type: functional, cell-based;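 note: intracellular parasites grown in NIH/3T3 mouse fibroblasts as host cells; luminescent beta-galactosidase reporter signal from transgenic T. cruzi replicating inside host cells; inhibitors lower the luminescence signal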
[29] = cytotoxicity toward NIH3T3 fibroblasts, dose response, counter-screen, cell-based, ATP luminescence, mouse fibroblasts (AID 2010); type: functional;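 note: cells exposed to compound for about 90 hours before reading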
[30] = target: T3, Ubiquitin-conjugating enzyme E2 N (Homo sapiens, UniProt P61088); type: functional;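 note: Dose-response confirmation in a TR-FRET assay detecting UBC13-driven polyubiquitin chain formation, inhibition measured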
T3 sequence (P61088 whole entry): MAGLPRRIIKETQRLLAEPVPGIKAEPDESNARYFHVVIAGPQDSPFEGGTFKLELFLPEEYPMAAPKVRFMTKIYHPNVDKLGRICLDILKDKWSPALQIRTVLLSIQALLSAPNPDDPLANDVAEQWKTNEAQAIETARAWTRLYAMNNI

[31] = cells
[32] = target: Mu-type opioid receptor (Homo sapiens, UniProt P35372); experiment: SAR Analysis of Antagonists of the MOR Receptor using an Image-Based Assay - Set 3. [Related pubchem assays (depositor defined):AID1777, AID1785, AID1786, AID1966, AID2133, AID2136, AID2284, AID2285, AID2420]; type: functional
[33] = target: Delta-type opioid receptor (Homo sapiens, UniProt P41143); experiment: SAR Analysis of Antagonists of the DOR Receptor using an Image-Based Assay - Set 3. [Related pubchem assays (depositor defined):AID1777, AID1785]; type: functional;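 note: U2OS cells expressing DOR1 and beta-arrestin GFP stimulated with 100 nM SNC80; imaging of GFP-tagged beta-arrestin moving into spots after receptor activation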
[34] = target: T4, Kappa-type opioid receptor (Homo sapiens, UniProt P41145); experiment: SAR analysis of small molecule antagonists of the kappa opioid receptor via a luminescent beta-arrestin assay - Set 3. [Related pubchem assays (depositor defined):AID1777, AID1778, AID1785, AID1786, AID1966, AID2133, AID2136, AID2285, AID2495]; type: functional
[35] = target: T4, Kappa-type opioid receptor; experiment: SAR analysis of Antagonists of the Kappa Opioid Receptor (KOR) using an Image-Based Assay - Set 3. [Related pubchem assays (depositor defined):AID1777, AID1785]; type: functional
[36] = target: Scavenger receptor class B member 1 (Mus musculus, UniProt Q61009); experiment: inhibitors of SR-BI mediated HDL lipid uptake, dose response, ldlA[mSR-BI] cells, fluorescence, cherry pick (AID 493194); type: functional, cell-based;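 note: cellular uptake of fluorescent DiI-labeled HDL measured as cell fluorescence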

T4 sequence (P41145 whole entry): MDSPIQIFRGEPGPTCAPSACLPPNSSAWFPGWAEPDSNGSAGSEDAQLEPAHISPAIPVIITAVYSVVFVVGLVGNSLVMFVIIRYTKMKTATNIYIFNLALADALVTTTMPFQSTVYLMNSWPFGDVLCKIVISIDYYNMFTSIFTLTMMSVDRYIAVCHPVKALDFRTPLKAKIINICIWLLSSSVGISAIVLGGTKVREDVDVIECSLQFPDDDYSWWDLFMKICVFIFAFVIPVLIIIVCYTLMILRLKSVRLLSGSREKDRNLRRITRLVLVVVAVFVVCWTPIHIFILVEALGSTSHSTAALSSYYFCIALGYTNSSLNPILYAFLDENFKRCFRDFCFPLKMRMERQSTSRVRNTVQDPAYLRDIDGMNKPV
Chain of G-protein coupled receptor 55 (Q9Y2T6 whole entry): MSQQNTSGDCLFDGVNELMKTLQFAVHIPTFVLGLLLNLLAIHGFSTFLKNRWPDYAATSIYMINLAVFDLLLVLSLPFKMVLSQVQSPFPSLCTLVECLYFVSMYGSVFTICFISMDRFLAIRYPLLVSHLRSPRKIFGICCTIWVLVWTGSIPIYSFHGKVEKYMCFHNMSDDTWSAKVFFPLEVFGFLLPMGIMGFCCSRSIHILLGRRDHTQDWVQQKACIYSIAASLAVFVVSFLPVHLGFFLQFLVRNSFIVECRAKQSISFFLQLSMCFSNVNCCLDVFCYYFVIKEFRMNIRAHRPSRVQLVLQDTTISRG
Chain of Perilipin-1/ABHD5 (Q8WTS1 whole entry, the tested form may be a part): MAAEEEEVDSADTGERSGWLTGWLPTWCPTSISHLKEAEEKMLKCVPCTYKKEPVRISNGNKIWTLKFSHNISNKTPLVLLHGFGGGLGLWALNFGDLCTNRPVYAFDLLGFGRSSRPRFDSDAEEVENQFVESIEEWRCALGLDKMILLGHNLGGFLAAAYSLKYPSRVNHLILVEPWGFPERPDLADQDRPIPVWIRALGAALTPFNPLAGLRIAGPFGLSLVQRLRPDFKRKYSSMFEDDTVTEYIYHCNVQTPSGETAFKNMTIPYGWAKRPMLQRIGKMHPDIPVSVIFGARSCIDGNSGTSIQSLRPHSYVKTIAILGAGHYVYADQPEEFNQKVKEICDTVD
Chain of Perilipin-1/ABHD5 (O60240 whole entry, the tested form may be a part): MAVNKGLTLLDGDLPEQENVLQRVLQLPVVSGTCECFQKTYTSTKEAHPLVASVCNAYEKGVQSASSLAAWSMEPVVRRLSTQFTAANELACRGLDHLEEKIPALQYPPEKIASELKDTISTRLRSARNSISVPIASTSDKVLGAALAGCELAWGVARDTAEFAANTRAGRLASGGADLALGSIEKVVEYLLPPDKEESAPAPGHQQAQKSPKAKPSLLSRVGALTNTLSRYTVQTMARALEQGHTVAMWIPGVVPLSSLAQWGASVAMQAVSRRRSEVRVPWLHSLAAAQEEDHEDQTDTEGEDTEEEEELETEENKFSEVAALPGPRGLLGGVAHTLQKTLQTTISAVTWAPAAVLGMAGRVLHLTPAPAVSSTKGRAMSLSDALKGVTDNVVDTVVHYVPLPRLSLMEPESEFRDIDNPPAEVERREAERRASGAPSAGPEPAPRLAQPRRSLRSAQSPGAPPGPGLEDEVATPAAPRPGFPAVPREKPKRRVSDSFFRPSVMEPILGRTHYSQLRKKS
Chain of NS3 (A3EZJ3 whole entry): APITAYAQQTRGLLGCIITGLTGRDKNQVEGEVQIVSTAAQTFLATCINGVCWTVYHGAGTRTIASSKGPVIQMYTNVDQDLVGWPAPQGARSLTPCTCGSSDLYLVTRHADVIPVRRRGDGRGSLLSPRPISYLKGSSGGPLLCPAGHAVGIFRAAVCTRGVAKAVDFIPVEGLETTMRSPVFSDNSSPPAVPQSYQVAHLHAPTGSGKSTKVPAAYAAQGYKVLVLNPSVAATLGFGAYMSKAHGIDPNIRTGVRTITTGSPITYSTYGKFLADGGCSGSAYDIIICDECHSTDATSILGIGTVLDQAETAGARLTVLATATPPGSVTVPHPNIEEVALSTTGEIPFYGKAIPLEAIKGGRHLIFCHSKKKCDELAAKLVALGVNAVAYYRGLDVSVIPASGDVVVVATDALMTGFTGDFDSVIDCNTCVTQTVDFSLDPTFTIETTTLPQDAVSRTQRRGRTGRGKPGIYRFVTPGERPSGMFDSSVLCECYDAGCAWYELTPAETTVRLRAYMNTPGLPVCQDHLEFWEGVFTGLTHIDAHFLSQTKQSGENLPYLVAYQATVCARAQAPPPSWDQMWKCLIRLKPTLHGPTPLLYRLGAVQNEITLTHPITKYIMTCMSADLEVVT
Chain of Alkaline phosphatase, placental type (P05187 whole entry): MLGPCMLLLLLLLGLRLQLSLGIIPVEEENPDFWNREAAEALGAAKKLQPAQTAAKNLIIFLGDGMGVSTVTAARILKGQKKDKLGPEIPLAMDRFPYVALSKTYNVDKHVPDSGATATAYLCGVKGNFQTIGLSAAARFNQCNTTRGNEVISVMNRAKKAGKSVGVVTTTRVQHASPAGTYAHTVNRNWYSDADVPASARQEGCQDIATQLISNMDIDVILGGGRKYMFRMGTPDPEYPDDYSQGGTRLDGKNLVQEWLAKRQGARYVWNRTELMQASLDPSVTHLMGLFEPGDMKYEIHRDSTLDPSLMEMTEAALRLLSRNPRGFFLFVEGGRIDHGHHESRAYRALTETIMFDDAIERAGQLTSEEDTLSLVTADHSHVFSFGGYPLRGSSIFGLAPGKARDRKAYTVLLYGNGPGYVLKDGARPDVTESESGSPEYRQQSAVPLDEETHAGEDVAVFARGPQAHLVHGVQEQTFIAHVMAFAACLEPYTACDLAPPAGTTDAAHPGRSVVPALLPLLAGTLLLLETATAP
Chain of 1-acylglycerol-3-phosphate O-acyltransferase ABHD5/Perilipin-5 (Q00G26 whole entry, the tested form may be a part): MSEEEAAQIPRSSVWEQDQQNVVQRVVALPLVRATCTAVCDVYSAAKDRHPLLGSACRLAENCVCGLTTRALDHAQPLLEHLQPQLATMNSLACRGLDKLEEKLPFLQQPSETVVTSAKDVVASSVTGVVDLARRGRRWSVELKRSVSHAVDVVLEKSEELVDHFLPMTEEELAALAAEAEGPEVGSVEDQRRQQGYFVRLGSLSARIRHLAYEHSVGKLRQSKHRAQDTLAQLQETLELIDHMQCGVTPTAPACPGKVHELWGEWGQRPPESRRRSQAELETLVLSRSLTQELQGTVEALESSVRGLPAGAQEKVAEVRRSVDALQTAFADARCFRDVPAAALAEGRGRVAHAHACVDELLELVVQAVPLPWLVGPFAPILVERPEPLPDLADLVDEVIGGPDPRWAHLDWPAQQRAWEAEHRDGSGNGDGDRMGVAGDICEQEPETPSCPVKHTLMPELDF
Chain of 1-acylglycerol-3-phosphate O-acyltransferase ABHD5/Perilipin-5 (Q8WTS1 whole entry, the tested form may be a part): as the sequence (Q8WTS1 whole entry, the tested form may be a part) above
Chain of Delta-type opioid receptor (P41143 whole entry): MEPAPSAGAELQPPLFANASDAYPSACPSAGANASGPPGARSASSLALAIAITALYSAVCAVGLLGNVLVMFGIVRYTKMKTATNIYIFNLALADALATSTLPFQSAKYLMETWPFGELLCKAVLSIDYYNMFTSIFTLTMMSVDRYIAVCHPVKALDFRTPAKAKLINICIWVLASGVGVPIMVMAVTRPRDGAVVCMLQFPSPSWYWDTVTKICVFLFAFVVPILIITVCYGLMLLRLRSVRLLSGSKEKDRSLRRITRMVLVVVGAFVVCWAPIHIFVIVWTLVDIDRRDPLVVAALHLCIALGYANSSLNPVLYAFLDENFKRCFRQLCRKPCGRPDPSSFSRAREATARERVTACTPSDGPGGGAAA
Chain of Dual specificity protein phosphatase 3 (P51452 whole entry, the tested form may be a part): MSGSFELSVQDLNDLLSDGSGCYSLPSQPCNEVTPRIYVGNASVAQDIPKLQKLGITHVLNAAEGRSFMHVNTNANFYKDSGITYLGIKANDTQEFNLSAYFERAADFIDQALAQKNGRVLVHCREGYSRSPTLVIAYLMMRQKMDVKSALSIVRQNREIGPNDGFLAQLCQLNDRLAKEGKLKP
Chain of C-C chemokine receptor type 6 (P51684 whole entry): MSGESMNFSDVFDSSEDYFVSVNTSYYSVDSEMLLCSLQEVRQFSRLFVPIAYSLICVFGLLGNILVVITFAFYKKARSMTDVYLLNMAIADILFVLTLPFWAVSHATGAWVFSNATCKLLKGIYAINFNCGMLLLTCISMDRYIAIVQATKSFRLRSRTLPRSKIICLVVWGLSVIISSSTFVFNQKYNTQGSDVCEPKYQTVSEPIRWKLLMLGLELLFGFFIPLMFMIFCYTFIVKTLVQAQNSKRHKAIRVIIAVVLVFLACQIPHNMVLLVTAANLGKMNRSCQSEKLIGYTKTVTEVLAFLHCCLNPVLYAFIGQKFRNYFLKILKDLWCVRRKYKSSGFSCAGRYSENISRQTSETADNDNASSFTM
Chain of Mu-type opioid receptor (P35372 whole entry): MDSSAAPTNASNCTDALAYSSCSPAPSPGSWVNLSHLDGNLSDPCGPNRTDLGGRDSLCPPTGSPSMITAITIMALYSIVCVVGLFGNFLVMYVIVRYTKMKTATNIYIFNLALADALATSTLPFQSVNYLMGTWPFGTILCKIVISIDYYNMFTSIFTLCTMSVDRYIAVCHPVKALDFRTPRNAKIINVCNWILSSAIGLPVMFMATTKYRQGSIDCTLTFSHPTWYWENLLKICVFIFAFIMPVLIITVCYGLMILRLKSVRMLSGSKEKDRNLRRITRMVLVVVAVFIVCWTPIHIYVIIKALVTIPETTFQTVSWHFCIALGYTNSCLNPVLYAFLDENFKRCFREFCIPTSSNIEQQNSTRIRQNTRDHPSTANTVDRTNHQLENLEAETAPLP
Chain of Trypsin (P00761 whole entry): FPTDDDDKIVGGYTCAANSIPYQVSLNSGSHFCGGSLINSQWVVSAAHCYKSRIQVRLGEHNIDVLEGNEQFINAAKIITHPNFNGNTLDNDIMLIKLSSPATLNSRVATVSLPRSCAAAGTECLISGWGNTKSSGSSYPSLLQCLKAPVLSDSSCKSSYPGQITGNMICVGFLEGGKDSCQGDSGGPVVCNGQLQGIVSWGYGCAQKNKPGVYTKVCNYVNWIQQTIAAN

In the case of `COCCNC(=O)/C(C#N)=C/c1cn(CC(=O)NCc2ccco2)c2ccccc12`, the AC50 [1] is reported as 174 µM (active).

In the case of `O=C(NCc1ccccc1)C1=C[C@H](c2ccc(C(F)(F)F)cc2)C[C@H](OCc2ccc(CO)cc2)O1`, the EC50 [2] is reported as 5.96 µM (active).

With `COCc1c(Br)c(C)nc(O)c1C#N` the AC50 [3] was 72.8 µM (active).

With `CC1CCN(CCCNC(=O)c2cc3c(s2)-c2ccccc2OC3)CC1` the CC50 [4] was > 66.6 µM (active), the CC50 [5] was 19.5 µM (active) and the CC50 [6] was 26.2 µM (active). For the same compound, the IC50 [7] was 18.2 µM (active), the CC50 [8] was > 100 µM (active) and the IC50 [9] was > 40 µM (active). For the same compound, the IC50 [10] was 25.1 µM (active).

For `CC(C)C[C@@H](CSc1ccc(Br)cc1)N1CCN(CCc2ccccc2)CCC1=O`, the EC50 [11] was 7.59 µM (active).

With `Cc1ccc(C)c(NC(S)=NNC(=O)c2ccc(Br)o2)c1` the IC50 [12] was > 100 µM (inactive), the IC50 [13] was > 100 µM (inactive) and the IC50 [14] was > 100 µM (inactive).

In the case of `COC(=O)C1=C(C)N(Cc2ccco2)C(=O)/C1=C\c1ccc([N+](=O)[O-])cc1`, the IC50 [15] is reported as 2.27 µM (active), the IC50 [16] is reported as 2.07 µM (active) and the IC50 [17] is reported as > 25 µM (active). The CC50 [18] was 17.6 µM (active) and the CC50 [19] was 62.9 µM (active).

In the case of `Cc1ccc(C(CCN(Cc2ccccc2)C(=O)c2ccco2)c2ccco2)cc1` (stereo unspecified), the IC50 [20] is reported as 8.82 µM (active), the IC50 [21] is reported as > 66.6 µM (inactive) and the IC50 [22] is reported as > 66.6 µM (inactive).

In the case of `COC(=O)c1ccc(CSc2nc3c(c(=O)[nH]2)CCC3)cc1`, the IC50 [23] is reported as > 39.8 µM (inactive).

For `CCN(CC)CCCNc1ccc(-c2nnc(-c3ccc(OCC(C)C)cc3)o2)cn1`, the IC50 [24] was 1.96 µM (active), the EC50 [25] was > 120 µM (not active) and the EC50 [26] was 13.5 µM (active). For the same compound, the EC50 [27] was > 30 µM (not active), the EC50 [28] was < 0.1 µM (active) and the EC50 [29] was 4.75 µM (active). For the same compound, the IC50 [30] was > 20 µM (inactive) and the EC50 [31] was 0.394 µM (active).

With `O=C(Cn1c(=O)c2cccn2c2ccccc21)NCCCN1CCN(Cc2ccccc2)CC1` the IC50 [32] was > 32 µM (inactive), the IC50 [33] was > 32 µM (inactive) and the IC50 [34] was > 20 µM (inactive). The IC50 [35] was > 32 µM (inactive).

For `Cc1cccc(N2CCN(C(=O)CN3C(=O)NC4(CCCCCC4)C3=O)CC2)c1C`, the AC50 [36] was 47.4 µM (active).
